Common to all, as to format: cell-based
The subject of assay [1] is E. faecalis VRE NCTC 12201. Put plainly: General MIC protocol, Gram positive panel. As to the method: (§1) General Minimum Inhibitory Concentration (MIC) Protocol
(§2) 1. Grow up cultures of bacterial strains to be tested overnight.
(§3) 2. Dilute down overnight cultures to concentration of 1×10^6 bacteria/ml (OD0.01) in Tryptic soy broth (TSB).
(§4) 3. Add 100 μl of TSB media to column 2-column 12 in 96 well plate (keeping column 1 clear).
(§5) 4. Make up compound to a concentration of 64 μg/ml in water (or alternatively to twice the chosen maximum concentration to be tested).
(§6) 5. Add 100 μl of antibiotic solution to the 1st and 2nd columns.
(§7) 6. Using a multichannel pipette take 100 μl from the 2nd column wells and pipette into 3rd column wells and repeat down the 96 well plate (remembering to include controls i.e. uninfected media and media with no antibiotic).
(§8) 7. To each well (except uninfected control row H) add 100 μl of bacterially infected media at a concentration of 1×10^6/ml.
(§9) 8. This dilutes down the concentration of the antibiotic by half (top dose is therefore 32 μg/ml in column 1) and also gives you a starting bacterial concentration of 5×10^5/ml.
(§10) 9. Wrap plate with parafilm to prevent evaporation.
(§11) 10. Leave at desired temperature (37° C. unless specified elsewhere) for 20 hours.
(§12) 11. Next day check plates for growth and measure optical density (i.e. absorbance) at a wavelength of 600 nm (OD600).
(§13) An example of such a plate is shown in FIG. 1 where column A represents wells that receive the top dose 100 μl; column B represents wells that receive the top dose 100 μl+100 μl TSB; and column C represents wells that receive 100 μl TSB. Row H which is marked by a box labelled D represents a blank where the cells receive no bacteria.

In the next assay the test system is E. faecalis VSE NCTC 775. Nature of the assay: General MIC protocol, Gram positive panel. Particulars: Enterococcus faecalis, NCTC775; VSE 775. As to the method: as §1, §2, §3, §4, §5, §6, §7, §8, §9, §10, §11, §12, §13
Assay [2] concerns E. faecium VRE NCTC 12204. Nature of the assay: General MIC protocol, Gram positive panel. As for the experimental part:
as §1, §2, §3, §4, §5, §6, §7, §8, §9, §10, §11, §12, §13

Another assay deals with EMRSA-15. Put plainly: General MIC protocol, Gram positive panel. As to the method: as §1, §2, §3, §4, §5, §6, §7, §8, §9, §10, §11, §12, §13
For a further assay, the system named is EMRSA-16. Put plainly: General MIC protocol, Gram positive panel. As for the experimental part: as §1, §2, §3, §4, §5, §6, §7, §8, §9, §10, §11, §12, §13
In assay [3] the test system is methicillin sensitive S. aureus ATTC 9144 (NCTC 6571). Put plainly: General MIC protocol, Gram positive panel. To be noted: Staphylococcus aureus, MSSA / NCTC 6571; MSSA 9144. As for the experimental part: as §1, §2, §3, §4, §5, §6, §7, §8, §9, §10, §11, §12, §13
The subject of a further assay is A. baumannii AYE. Nature of the assay: General MIC protocol, Gram negative. Particulars: Acinetobacter baumannii. As to the method:
as §1, §2, §3, §4, §5, §6, §7, §8, §9, §10, §11, §12, §13

The subject of the next assay is A. baumannii NCTC 17978. Put plainly: General MIC protocol, Gram negative. Particulars: Acinetobacter baumannii, NCTC17978. As to the method: as §1, §2, §3, §4, §5, §6, §7, §8, §9, §10, §11, §12, §13
A further assay has as its system K. pneumonia M6. Put plainly: General MIC protocol, Gram negative. To be noted: Klebsiella pneumoniae; KP-M6. As to the method: as §1, §2, §3, §4, §5, §6, §7, §8, §9, §10, §11, §12, §13
The next assay relates to K. pneumonia NCTC 13368. Put plainly: General MIC protocol, Gram negative. Particulars: Klebsiella pneumoniae, NCTC13368. As for the experimental part:
as §1, §2, §3, §4, §5, §6, §7, §8, §9, §10, §11, §12, §13

The subject of a further assay is P. aeruginosa NCTC 13437. Put plainly: General MIC protocol, Gram negative. To be noted: Pseudomonas aeruginosa, NCTC13437. As to the method:
as §1, §2, §3, §4, §5, §6, §7, §8, §9, §10, §11, §12, §13

The subject of another assay is P. aeruginosa PA01. Nature of the assay: General MIC protocol, Gram negative. Particulars: Pseudomonas aeruginosa, PA01, PA01. As to the method: as §1, §2, §3, §4, §5, §6, §7, §8, §9, §10, §11, §12, §13
For assay [4], the system named is HeLa (Cervical cancer cell line). Nature of the assay: MTT cytotoxicity assay. To be noted: Homo sapiens, MTT, 24 h continuous exposure, read-out: IC50 HeLa (Cervical cancer cell line). As to the method:
(§14) Two immortalised human cell lines, HeLa and WI38 were used for cytotoxicity screening of the compounds. HeLa is a human cervical cancer cell line and WI38 is a normal healthy cell line. The cell lines were obtained from the American Type Culture Collection. The cell-lines were maintained in monolayer culture in 75 cm2 flasks (TPP, Switzerland) under a humidified 5% CO2 atmosphere at 37° C. The HeLa cell line was maintained in Dulbecco's Modified Eagles Media (DMEM; Invitrogen) supplemented with foetal bovine serum (10% v/v; Invitrogen), L-glutamine (2 mM; Invitrogen), non-essential amino acids (1×; Invitrogen) and Penicillin-Streptomycin (1% v/v, Invitrogen). For WI38, Eagle's Minimum Essential Medium, and Penicillin-Streptomycin (1% v/v, Invitrogen) and foetal bovine serum (10%, nvitrogen) was used. For passaging, cells were washed with phosphate buffered saline [PBS] (GIBCO 14040, Invitrogen, UK), incubated with trypsine (GIBCO 25300, Invitrogen, UK), and re-seeded into fresh medium. For seeding, cells were counted using a Neubauer haemocytometer (Assistant, Germany) by microscopy (Nikon, USA) on a non-adherent suspension of cells that were washed in PBS, trypsinised, centrifuged at 8° C. at 8000 rpm for 5 min and re-suspended in fresh medium.
(§15) The cells were grown in normal cell culture conditions at 37° C. under a 5% CO2 humidified atmosphere using appropriate medium. The cell count was adjusted to 10^5 cells/ml/ and 20,000 cells were added per well. The cells were incubated for 24 hours and 1 μl of the appropriate inhibitor concentrations were to the wells in triplicates. After 24 h of continuous exposure to each compound, the cytotoxicity was determined using the MIT (3-(4,5-Dimethylthiazol-2-yl)-2,5-diphenyltetrazolium bromide) (Lancaster Synthesis Ltd, UK) colorimetric assay. Absorbance was quantified by spectrophotometry at λ=570 nm (Envision Plate Reader, PerkinElmer, USA). IC50 values were calculated by a dose-response analysis using the Prism Graphpad Prism® software. The cytotoxicity results are shown below in Table 12.

The next assay deals with WI38 (Healthy cell line). Nature of the assay: MTT cytotoxicity assay. To be noted: Homo sapiens, WI-38; MTT; 24 h continuous exposure; highest concentration tested 20 μM; read-out: IC50 WI38 (Healthy cell line). As to the method:
as §14, §15
Background: Tetrazolium assays rely on reduction of a dye to a coloured formazan, in cell work by metabolically active cells.

Converted amounts (≈) assume the structure as drawn.

In general, MIC refers to the least concentration at which growth counts as inhibited. A low value points to inhibition by little substance. The term IC50 denotes the midpoint of a concentration-inhibition curve. Turning to `COc1cc2c(cc1OCCCC(=O)Nc1cc(C(=O)Nc3ccc4sc(C(=O)N5CCCCC5)cc4c3)n(C)c1)N=C[C@@H]1CCCN1C2=O` [PP-B22, (S)-4-(4-((7-methoxy-5-oxo-2,3,5,11a-tetrahydro-1H-benzo-[e]pyrrolo[1,2-a][1,4]diazepin-8-yl)oxy)butanamido)-1-methyl-N-(2-(piperidine-1-carbonyl)benzo[b]thiophen-5-yl)-1H-pyrrole-2-carboxamide], the MIC was less than 0.125 µg/mL in assay [1]; 0.25 µg/mL (≈ 0.359 µM) with E. faecalis VSE NCTC 775; less than 0.125 µg/mL in assay [2]; 0.5 µg/mL (≈ 0.718 µM) with EMRSA-15; 1 µg/mL (≈ 1.44 µM) against EMRSA-16; less than 0.125 µg/mL in assay [3]. Further, the MIC was 8 µg/mL (≈ 11.5 µM) with A. baumannii AYE; 8 µg/mL (≈ 11.5 µM) against A. baumannii NCTC 17978; 128 µg/mL (≈ 184 µM) against K. pneumonia M6; 128 µg/mL (≈ 184 µM) against K. pneumonia NCTC 13368; 64 µg/mL (≈ 91.8 µM) against P. aeruginosa NCTC 13437; 128 µg/mL (≈ 184 µM) in the assay on P. aeruginosa PA01. In addition, the IC50 (in assay [4]; with WI38 (Healthy cell line)) was more than 20 µM each time.
For `CCN(CC)C(=O)c1cc2cc(NC(=O)c3cc(NC(=O)CCCOc4cc5c(cc4OC)C(=O)N4CCC[C@H]4C=N5)cn3C)ccc2s1` [PP-B28], the MIC in [1] worked out at 0.5 µg/mL (≈ 0.73 µM); with E. faecalis VSE NCTC 775, 1 µg/mL (≈ 1.46 µM); in assay [2], 1 µg/mL (≈ 1.46 µM); in the assay with EMRSA-15, 1 µg/mL (≈ 1.46 µM); against EMRSA-16, 4 µg/mL (≈ 5.84 µM); in [3], 0.5 µg/mL (≈ 0.73 µM). The MIC in the assay with A. baumannii AYE turned out to be 4 µg/mL (≈ 5.84 µM); against A. baumannii NCTC 17978 it was 4 µg/mL (≈ 5.84 µM); in the assay with K. pneumonia M6, 8 µg/mL (≈ 11.7 µM); in the assay on K. pneumonia NCTC 13368 it was 64 µg/mL (≈ 93.5 µM); in the assay on P. aeruginosa NCTC 13437, 32 µg/mL (≈ 46.7 µM); in the assay on P. aeruginosa PA01, 128 µg/mL (≈ 187 µM). Also, the IC50 (in [4]; with WI38 (Healthy cell line)) was more than 20 µM in each case.
`COc1cc2c(cc1OCCCC(=O)Nc1cc(C(=O)Nc3ccc4sc(C(=O)N5CCOCC5)cc4c3)n(C)c1)N=C[C@@H]1CCCN1C2=O` [PP-B16, (S)-4-(4-((7-methoxy-5-oxo-2,3,5,11a-tetrahydro-1H-benzo[e]pyrrolo[1,2-a][1,4]diazepin-8-yl)oxy)butanamido)-1-methyl-N-(2-(morpholine-4-carbonyl)benzo[b]thiophen-5-yl)-1H-pyrrole-2-carboxamide]: the MIC is less than 0.125 µg/mL in [1]; less than 0.125 µg/mL against E. faecalis VSE NCTC 775; less than 0.125 µg/mL in [2]; less than 0.125 µg/mL in the assay on EMRSA-15; 0.5 µg/mL (≈ 0.716 µM) in the assay on EMRSA-16; less than 0.125 µg/mL in assay [3]. Besides, the MIC in the assay on A. baumannii AYE was found to be 8 µg/mL (≈ 11.4 µM); against A. baumannii NCTC 17978 it was 8 µg/mL (≈ 11.4 µM); in the assay on K. pneumonia M6, 64 µg/mL (≈ 91.6 µM); against K. pneumonia NCTC 13368, 8 µg/mL (≈ 11.4 µM); in the assay with P. aeruginosa NCTC 13437 it was 32 µg/mL (≈ 45.8 µM); with P. aeruginosa PA01, 64 µg/mL (≈ 91.6 µM). For the same compound, the IC50 (in assay [4]; in the assay on WI38 (Healthy cell line)) was more than 20 µM each time.
Turning to `COc1cc2c(cc1OCCCC(=O)Nc1cc(C(=O)Nc3ccc4sc(C(=O)N5CCSCC5)cc4c3)n(C)c1)N=C[C@@H]1CCCN1C2=O` [PP-B15, (S)-4-(4-((7-methoxy-5-oxo-2,3,5,11a-tetrahydro-1H-benzo-[e]pyrrolo[1,2-a][1,4]diazepin-8-yl)oxy)butanamido)-1-methyl-N-(2-(thiomorpholine-4-carbonyl)benzo[b]thiophen-5-yl)-1H-pyrrole-2-carboxamide], the MIC (in assay [1]; against E. faecalis VSE NCTC 775; in [2]; in the assay on EMRSA-15; in the assay with EMRSA-16; in assay [3]) was less than 0.125 µg/mL in each case. For the same compound, the MIC in the assay on A. baumannii AYE is 2 µg/mL (≈ 2.8 µM); against A. baumannii NCTC 17978, 2 µg/mL (≈ 2.8 µM); with K. pneumonia M6 it was more than 128 µg/mL; with K. pneumonia NCTC 13368 it was 2 µg/mL (≈ 2.8 µM); against P. aeruginosa NCTC 13437 it was 32 µg/mL (≈ 44.8 µM); against P. aeruginosa PA01, 64 µg/mL (≈ 89.5 µM). Also, the IC50 (in assay [4]; in the assay with WI38 (Healthy cell line)) was more than 20 µM throughout.
